Data reported in PubChem BioAssay AID1259411 (Chemical Carcinogenesis Research Information System (CCRIS), 2018).
Active and inactive are the calls of the source. The rule behind the calls is not given here.

Test system: rodent carcinogenicity bioassays, tumor incidence
Assay: CCRIS carcinogenicity studies
Conditions: Dose: 0, Dose: 0
In short: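 Archive of carcinogenicity, mutagenicity, tumor promotion and tumor inhibition results drawn from journals, NCI reports and other sources, expert-reviewed; covers 1985-2011 and is no longer updated.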

Measured: carcinogen call

ClCC(Cl)CCl
active: Species: GUPPIE, Strain/Sex: FEMALE, Route: AQUARIUM WATER, 4.5, 9, 18 MG/L FOR 9 MO THEN IN CLEAN WATER FOR 7 MO (STUDY DURATION: 16 MO), 4.5, 9, 18 MG/L FOR 9 MO THEN IN CLEAN WATER FOR 7 MO (STUDY DURATION: 16 MO), Tumor Site: Type of Lesion: LIVER: CHOLANGIOCARCINOMA, HEPATOCELLULAR ADENOMA OR CARCINOMA active; positive | Species: GUPPIE, Strain/Sex: FEMALE, Route: AQUARIUM WATER, 4.5, 9, 18 MG/L FOR 16 MO (STUDY DURATION: 16 MO), 4.5, 9, 18 MG/L FOR 16 MO (STUDY DURATION: 16 MO), Tumor Site: Type of Lesion: LIVER: HEPATOCELLULAR ADENOMA OR CARCINOMA, CHOLANGIOCARCINOMA active; positive | Species: GUPPIE, Strain/Sex: MALE, Route: AQUARIUM WATER, 4.5, 9, 18 MG/L FOR 9 MO THEN IN CLEAN WATER FOR 7 MO (STUDY DURATION: 16 MO), 4.5, 9, 18 MG/L FOR 9 MO THEN IN CLEAN WATER FOR 7 MO (STUDY DURATION: 16 MO), Tumor Site: Type of Lesion: LIVER: HEPATOCELLULAR ADENOMA OR CARCINOMA active; positive | Species: GUPPIE, Strain/Sex: MALE, Route: AQUARIUM WATER, 4.5, 9, 18 MG/L FOR 16 MO (STUDY DURATION: 16 MO), 4.5, 9, 18 MG/L FOR 16 MO (STUDY DURATION: 16 MO), Tumor Site: Type of Lesion: LIVER: HEPATOCELLULAR ADENOMA OR CARCINOMA active; positive | Species: MEDAKA, Strain/Sex: FEMALE, Route: AQUARIUM WATER, 4.5, 9, 18 MG/L FOR 9 MO THEN IN CLEAN WATER FOR 4 MO (STUDY DURATION: 13 MO), 4.5, 9, 18 MG/L FOR 9 MO THEN IN CLEAN WATER FOR 4 MO (STUDY DURATION: 13 MO), Tumor Site: Type of Lesion: LIVER: CHOLANGIOCARCINOMA, HEPATOCELLULAR ADENOMA OR CARCINOMA, GALL BLADDER: ADENOMA active; positive | Species: MEDAKA, Strain/Sex: FEMALE, Route: AQUARIUM WATER, 4.5, 9, 18 MG/L FOR 13 MO (STUDY DURATION: 13 MO), 4.5, 9, 18 MG/L FOR 13 MO (STUDY DURATION: 13 MO), Tumor Site: Type of Lesion: LIVER: CHOLANGIOCARCINOMA, HEPATOCELLULAR ADENOMA OR CARCINOMA, HEPATOCHOLANGIOCARCINOMA, GALL BLADDER: ADENOMA active; positive | Species: MEDAKA, Strain/Sex: MALE, Route: AQUARIUM WATER, 4.5, 9, 18 MG/L FOR 9 MO THEN IN CLEAN WATER FOR 4 MO (STUDY DURATION: 13 MO), 4.5, 9, 18 MG/L FOR 9 MO THEN IN CLEAN WATER FOR 4 MO (STUDY DURATION: 13 MO), Tumor Site: Type of Lesion: LIVER: CHOLANGIOCARCINOMA, HEPATOCELLULAR ADENOMA OR CARCINOMA, GALL BLADDER: ADENOMA active; positive | Species: MEDAKA, Strain/Sex: MALE, Route: AQUARIUM WATER, 4.5, 9, 18 MG/L FOR 13 MO (STUDY DURATION: 13 MO), 4.5, 9, 18 MG/L FOR 13 MO (STUDY DURATION: 13 MO), Tumor Site: Type of Lesion: LIVER: CHOLANGIOCARCINOMA, HEPATOCELLULAR ADENOMA OR CARCINOMA, GALL BLADDER: ADENOMA, HEPATOCHOLANGIOCARCINOMA active; positive | Species: MOUSE, Strain/Sex: B6C3F1/FEMALE, Route: GAVAGE, 6, 20, 60 MG/KG BW IN CORN OIL 5 D/WK FOR 104 WK (STUDY DURATION: 2 YR), 6, 20, 60 MG/KG BW IN CORN OIL 5 D/WK FOR 104 WK (STUDY DURATION: 2 YR), Tumor Site: Type of Lesion: HARDERIAN GLAND: ADENOMA, LIVER: HEPATOCELLULAR ADENOMA, PHARYNX: SQUAMOUS CELL CARCINOMA, FORESTOMACH: SQUAMOUS CELL PA, Tumor Site: Type of Lesion: HARDERIAN GLAND: ADENOMA, LIVER: HEPATOCELLULAR ADENOMA, PHARYNX: SQUAMOUS CELL CARCINOMA, FORESTOMACH: SQUAMOUS CELL PA active; positive | Species: MOUSE, Strain/Sex: B6C3F1/MALE, Route: GAVAGE, 6, 20, 60 MG/KG BW IN CORN OIL 5 D/WK FOR 104 WK (STUDY DURATION: 2 YR), 6, 20, 60 MG/KG BW IN CORN OIL 5 D/WK FOR 104 WK (STUDY DURATION: 2 YR), Tumor Site: Type of Lesion: HARDERIAN GLAND: ADENOMA, LIVER: HEPATOCELLULAR ADENOMA, FORESTOMACH: SQUAMOUS CELL PAPILLOMA, SQUAMOUS CELL CARCINOMA, Tumor Site: Type of Lesion: HARDERIAN GLAND: ADENOMA, LIVER: HEPATOCELLULAR ADENOMA, FORESTOMACH: SQUAMOUS CELL PAPILLOMA, SQUAMOUS CELL CARCINOMA active; positive | Species: RAT, Strain/Sex: F344/FEMALE, Route: GAVAGE, 3, 10, 30 MG/KG BW IN CORN OIL 5 D/WK FOR 104 WK (STUDY DURATION: 2 YR), 3, 10, 30 MG/KG BW IN CORN OIL 5 D/WK FOR 104 WK (STUDY DURATION: 2 YR), Tumor Site: Type of Lesion: CLITORAL GLAND: ADENOMA, CARCINOMA, MAMMARY GLAND: CARCINOMA, PHARYNX: SQUAMOUS CELL CARCINOMA, FORESTOMACH: SQUAMOUS CE, Tumor Site: Type of Lesion: CLITORAL GLAND: ADENOMA, CARCINOMA, MAMMARY GLAND: CARCINOMA, PHARYNX: SQUAMOUS CELL CARCINOMA, FORESTOMACH: SQUAMOUS CE active; positive | Species: RAT, Strain/Sex: F344/MALE, Route: GAVAGE, 3, 10, 30 MG/KG BW IN CORN OIL 5 D/WK FOR 104 WK (STUDY DURATION: 2 YR), 3, 10, 30 MG/KG BW IN CORN OIL 5 D/WK FOR 104 WK (STUDY DURATION: 2 YR), Tumor Site: Type of Lesion: KIDNEY (RENAL TUBULE): ADENOMA, PANCREAS: ADENOMA, PHARYNX: SQUAMOUS CELL CARCINOMA, PREPUTIAL GLAND: ADENOMA, CARCINOMA, Tumor Site: Type of Lesion: KIDNEY (RENAL TUBULE): ADENOMA, PANCREAS: ADENOMA, PHARYNX: SQUAMOUS CELL CARCINOMA, PREPUTIAL GLAND: ADENOMA, CARCINOMA active; positive

C=CC(O)c1ccc(OC)cc1 (configuration not stated)
active: Species: MOUSE, Strain/Sex: CD-1/MALE, Route: SUBCUTANEOUS, 0.17 UMOL IN 0.025 ML TRIOCTANOIN WITHIN 24 H AFTER BIRTH THEN 0, 0.47 UMOL IN 0.05 ML TRIOCTANOIN ON D 8, 0, 0.95 UM, 0.17 UMOL IN 0.025 ML TRIOCTANOIN WITHIN 24 H AFTER BIRTH THEN 0, 0.47 UMOL IN 0.05 ML TRIOCTANOIN ON D 8, 0, 0.95 µM, Tumor Site: Type of Lesion: LIVER: HEPATOCELLULAR CARCINOMA active; positive

O[C@@H]1[C@@H]2O[C@@H]2C=C[C@H]1O
active: Species: MOUSE, Strain/Sex: SWISS/FEMALE, Route: INTRAPERITONEAL, 2.7, 13.7 UMOL ADMINISTERED AS 3 UNEQUAL DOSES (1/7, 2/7, AND 4/7 OF THE TOTAL DOSE) OVER A 2-WK PERIOD (STUDY DURATI, 2.7, 13.7 UMOL ADMINISTERED AS 3 UNEQUAL DOSES (1/7, 2/7, AND 4/7 OF THE TOTAL DOSE) OVER A 2-WK PERIOD (STUDY DURATI, Tumor Site: Type of Lesion: LUNG: ADENOMA active; positive | Species: MOUSE, Strain/Sex: SWISS/FEMALE, Route: INTRAPERITONEAL, 13.7 UMOL ADMINISTERED AS 3 UNEQUAL DOSES (1/7, 2/7, AND 4/7 OF THE TOTAL DOSE) OVER A 2-WK PERIOD (STUDY DURATION: 2, Tumor Site: Type of Lesion: LUNG: ADENOMA active; positive | Species: MOUSE, Strain/Sex: SWISS/MALE, Route: INTRAPERITONEAL, 2.7, 13.7 UMOL ADMINISTERED AS 3 UNEQUAL DOSES (1/7, 2/7, AND 4/7 OF THE TOTAL DOSE) OVER A 2-WK PERIOD (STUDY DURATI, 2.7, 13.7 UMOL ADMINISTERED AS 3 UNEQUAL DOSES (1/7, 2/7, AND 4/7 OF THE TOTAL DOSE) OVER A 2-WK PERIOD (STUDY DURATI, Tumor Site: Type of Lesion: LUNG: ADENOMA active; positive | Species: MOUSE, Strain/Sex: SWISS/MALE, Route: INTRAPERITONEAL, 13.7 UMOL ADMINISTERED AS 3 UNEQUAL DOSES (1/7, 2/7, AND 4/7 OF THE TOTAL DOSE) OVER A 2-WK PERIOD (STUDY DURATION: 2, Tumor Site: Type of Lesion: LUNG: ADENOMA active; positive
